Numbered stars: 1 amine (or outer) side, 2 acyl side, 3 side chain; on linkers, the order of the positions; unused ones are H or OH. Side chains are listed from the residue outwards. Peptide text beside a SMILES is read from it. * marks the point of attachment. C18 diacid = O=C(O)CCCCCCCCCCCCCCCCC(=O)*; γGlu = O=C(O)[C@H](CCC(=O)[*:2])N[*:1]; AEEA = NCCOCCOCC(=O)O
Target: T1, glucagon receptor (Homo sapiens, UniProt P47871)
T1 construct: expressed in transfected cells
Test: Assay (I) Glucagon activity (cAMP biosensor, FLIPR)
Format: cell-based
Experimental: The cells (14000 per well) were incubated (37° C., 5% CO2) overnight in 384-well plates. Next day the cells were loaded with a calcium responsive dye that only distributed into the cytoplasm. Probenecid, an inhibitor of the organic anion transporter, was added to prevent the dye from leaving the cell. A PDE inhibitor was added to prevent formatted cAMP from being degraded. The plates were placed into a […] and the glucagon analogues were added. End point data were collected after 6 minutes. An increase in intracellular cAMP was proportional to an increased in calcium concentrations in the cytoplasm. When calcium was bound the dry a fluorescence signal was generated. EC50-values were calculated in Prism5.

T1 sequence (P47871 26-477): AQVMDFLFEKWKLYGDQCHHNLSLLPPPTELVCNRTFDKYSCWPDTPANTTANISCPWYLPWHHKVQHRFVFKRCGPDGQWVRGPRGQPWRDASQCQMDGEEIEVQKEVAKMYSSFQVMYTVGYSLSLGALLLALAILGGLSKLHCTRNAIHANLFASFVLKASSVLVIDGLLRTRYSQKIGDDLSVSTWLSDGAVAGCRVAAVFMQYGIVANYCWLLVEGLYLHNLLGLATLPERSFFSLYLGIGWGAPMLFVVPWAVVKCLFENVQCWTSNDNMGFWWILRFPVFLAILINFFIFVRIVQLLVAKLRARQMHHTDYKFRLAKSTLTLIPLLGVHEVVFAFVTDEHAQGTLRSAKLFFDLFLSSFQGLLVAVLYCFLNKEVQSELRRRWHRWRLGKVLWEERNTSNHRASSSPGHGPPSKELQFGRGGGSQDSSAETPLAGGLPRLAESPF

SMILES | EC50
CC(C)C[C@H](NC(=O)[C@H](Cc1ccc(O)cc1)NC(=O)[C@H](CCCCN)NC(=O)[C@H](CO)NC(=O)[C@H](Cc1ccc(O)cc1)NC(=O)[C@H](CC(=O)O)NC(=O)[C@H](CO)NC(=O)[C@@H](NC(=O)[C@H](Cc1ccccc1)NC(=O)[C@@H](NC(=O)CNC(=O)[C@H](Cc1c[nH]cn1)NC(=O)[C@H](CO)NC(=O)[C@@H](N)Cc1c[nH]cn1)[C@@H](C)O)[C@@H](C)O)C(=O)N[C@@H](CC(=O)O)C(=O)N[C@@H](CO)C(=O)N[C@@H](CCCNC(=N)N)C(=O)N[C@@H](CCCNC(=N)N)C(=O)N[C@@H](C)C(=O)N[C@@H](CCC(N)=O)C(=O)N[C@@H](CC(=O)O)C(=O)N[C@@H](Cc1ccccc1)C(=O)N[C@H](C(=O)N[C@@H](CCCCNC(=O)CC[C@H](NC(=O)CC[C@H](NC(=O)COCCOCCNC(=O)COCCOCCNC(=O)CC[C@H](NC(=O)CCCCCCCCCCCCCCCCC(=O)O)C(=O)O)C(=O)O)C(=O)O)C(=O)N[C@@H](Cc1c[nH]c2ccccc12)C(=O)N[C@@H](CC(C)C)C(=O)N[C@@H](CC(C)C)C(=O)N[C@@H](CO)C(=O)N[C@H](C(=O)O)[C@@H](C)O)C(C)C [Example 2, N^ε24-[(4S)-4-carboxy-4-[[(4S)-4-carboxy-4-[[2-[2-[2-[[2-[2-[2-[[(4S)-4-carboxy-4-(17-carboxyheptadecanoylamino)butanoyl]amino]ethoxy]ethoxy]acetyl]amino]ethoxy]ethoxy]acetyl]amino]butanoyl]amino]butanoyl]-[His^3,Lys^24,Leu^27,Ser^28]-Glucagon] | 0.129 nM
CC(C)C[C@H](NC(=O)[C@H](Cc1ccc(O)cc1)NC(=O)[C@H](CCCCN)NC(=O)[C@H](CO)NC(=O)[C@H](Cc1ccc(O)cc1)NC(=O)[C@H](CC(=O)O)NC(=O)[C@H](CO)NC(=O)[C@@H](NC(=O)[C@H](Cc1ccccc1)NC(=O)[C@@H](NC(=O)CNC(=O)[C@H](Cc1c[nH]cn1)NC(=O)[C@H](CO)NC(=O)[C@@H](N)Cc1c[nH]cn1)[C@@H](C)O)[C@@H](C)O)C(=O)N[C@@H](CC(=O)O)C(=O)N[C@@H](CO)C(=O)N[C@@H](CCCNC(=N)N)C(=O)N[C@@H](CCCNC(=N)N)C(=O)N[C@@H](C)C(=O)N[C@@H](CCCCN)C(=O)N[C@@H](CC(=O)O)C(=O)N[C@@H](Cc1ccccc1)C(=O)N[C@H](C(=O)N[C@@H](CCCCNC(=O)CC[C@H](NC(=O)CC[C@H](NC(=O)COCCOCCNC(=O)COCCOCCNC(=O)CC[C@H](NC(=O)CCCCCCCCCCCCCCCCC(=O)O)C(=O)O)C(=O)O)C(=O)O)C(=O)N[C@@H](Cc1c[nH]c2ccccc12)C(=O)N[C@@H](CC(C)C)C(=O)N[C@@H](CC(C)C)C(=O)N[C@@H](CO)C(=O)N[C@H](C(=O)O)[C@@H](C)O)C(C)C [Example 3, N^ε24-[(4S)-4-carboxy-4-[[(4S)-4-carboxy-4-[[2-[2-[2-[[2-[2-[2-[[(4S)-4-carboxy-4-(17-carboxyheptadecanoylamino)butanoyl]amino]ethoxy]ethoxy]acetyl]amino]ethoxy]ethoxy]acetyl]amino]butanoyl]amino]butanoyl]-[His^3,Lys^20,Lys^24,Leu^27,Ser^28]-Glucagon] (H-HSHGTFTSDYSKYLDSRRAKDFVK([γGlu-γGlu-AEEA-AEEA-γGlu-C18 diacid])WLLST-OH) | 0.249 nM
CC(C)C[C@H](NC(=O)[C@H](Cc1ccc(O)cc1)NC(=O)[C@H](CCCCN)NC(=O)[C@H](CO)NC(=O)[C@H](Cc1ccc(O)cc1)NC(=O)[C@H](CC(=O)O)NC(=O)[C@H](CO)NC(=O)[C@@H](NC(=O)[C@H](Cc1ccccc1)NC(=O)[C@@H](NC(=O)CNC(=O)[C@H](Cc1c[nH]cn1)NC(=O)[C@H](CO)NC(=O)[C@@H](N)Cc1c[nH]cn1)[C@@H](C)O)[C@@H](C)O)C(=O)N[C@@H](CC(=O)O)C(=O)N[C@@H](CO)C(=O)N[C@@H](CCCNC(=N)N)C(=O)N[C@@H](CCCNC(=N)N)C(=O)N[C@@H](C)C(=O)N[C@@H](CCC(N)=O)C(=O)N[C@@H](CC(=O)O)C(=O)N[C@@H](Cc1ccccc1)C(=O)N[C@H](C(=O)N[C@@H](CCCCNC(=O)CC[C@H](NC(=O)CC[C@H](NC(=O)COCCOCCNC(=O)COCCOCCNC(=O)CC[C@H](NC(=O)CCCCCCCCCCCCCCCCC(=O)O)C(=O)O)C(=O)O)C(=O)O)C(=O)N[C@@H](Cc1c[nH]c2ccccc12)C(=O)N[C@@H](CC(C)C)C(=O)N[C@@H](CC(C)C)C(=O)N[C@@H](CC(N)=O)C(=O)N[C@H](C(=O)O)[C@@H](C)O)C(C)C [Example 5, N^ε24-[(4S)-4-carboxy-4-[[(4S)-4-carboxy-4-[[2-[2-[2-[[2-[2-[2-[[(4S)-4-carboxy-4-(17-carboxyheptadecanoylamino)butanoyl]amino]ethoxy]ethoxy]acetyl]amino]ethoxy]ethoxy]acetyl]amino]butanoyl]amino]butanoyl]-[His^3,Lys^24,Leu^27]-Glucagon] | 0.105 nM
CC(C)C[C@H](NC(=O)[C@H](Cc1ccc(O)cc1)NC(=O)[C@H](CCCCN)NC(=O)[C@H](CO)NC(=O)[C@H](Cc1ccc(O)cc1)NC(=O)[C@H](CC(=O)O)NC(=O)[C@H](CO)NC(=O)[C@@H](NC(=O)[C@H](Cc1ccccc1)NC(=O)[C@@H](NC(=O)CNC(=O)[C@H](Cc1c[nH]cn1)NC(=O)[C@H](CO)NC(=O)[C@@H](N)Cc1c[nH]cn1)[C@@H](C)O)[C@@H](C)O)C(=O)N[C@@H](CC(=O)O)C(=O)N[C@@H](CO)C(=O)N[C@@H](CCCCN)C(=O)N[C@@H](CCCNC(=N)N)C(=O)N[C@@H](C)C(=O)N[C@@H](CCC(N)=O)C(=O)N[C@@H](CCC(=O)O)C(=O)N[C@@H](Cc1ccccc1)C(=O)N[C@H](C(=O)N[C@@H](CCCCNC(=O)CC[C@H](NC(=O)CC[C@H](NC(=O)COCCOCCNC(=O)CC[C@H](NC(=O)CCCCCCCCCCCCCCCCC(=O)O)C(=O)O)C(=O)O)C(=O)O)C(=O)N[C@@H](Cc1c[nH]c2ccccc12)C(=O)N[C@@H](CC(C)C)C(=O)N[C@@H](CC(C)C)C(=O)N[C@@H](CO)C(=O)N[C@H](C(=O)O)[C@@H](C)O)C(C)C [Example 6, N^ε24-[(4S)-4-carboxy-4-[[(4S)-4-carboxy-4-[[2-[2-[2-[[(4S)-4-carboxy-4-(17-carboxyheptadecanoylamino)butanoyl]amino]ethoxy]ethoxy]acetyl]amino]butanoyl]amino]butanoyl]-[His^3,Lys^17,Glu^21,Lys^24,Leu^27,Ser^28]-Glucagon] (H-HSHGTFTSDYSKYLDSKRAQEFVK([γGlu-γGlu-AEEA-γGlu-C18 diacid])WLLST-OH) | 0.077 nM
CC(C)C[C@H](NC(=O)[C@H](Cc1c[nH]c2ccccc12)NC(=O)[C@H](CCCCNC(=O)CC[C@H](NC(=O)CC[C@H](NC(=O)COCCOCCNC(=O)COCCOCCNC(=O)CC[C@H](NC(=O)CCCCCCCCCCCCCCCCC(=O)O)C(=O)O)C(=O)O)C(=O)O)NC(=O)[C@@H](NC(=O)[C@H](Cc1ccccc1)NC(=O)[C@H](CC(=O)O)NC(=O)[C@H](CCC(N)=O)NC(=O)[C@H](C)NC(=O)[C@H](CCCNC(=N)N)NC(=O)[C@H](CCCNC(=N)N)NC(=O)[C@@H](NC(=O)[C@H](CC(=O)O)NC(=O)[C@H](CC(C)C)NC(=O)[C@H](Cc1ccc(O)cc1)NC(=O)[C@H](CCCCN)NC(=O)[C@H](CO)NC(=O)[C@H](Cc1ccc(O)cc1)NC(=O)[C@H](CC(=O)O)NC(=O)[C@H](CO)NC(=O)[C@@H](NC(=O)[C@H](Cc1ccccc1)NC(=O)[C@@H](NC(=O)CNC(=O)[C@H](CCC(N)=O)NC(=O)[C@H](CO)NC(=O)[C@@H](N)Cc1c[nH]cn1)[C@@H](C)O)[C@@H](C)O)C(C)C)C(C)C)C(=O)N[C@@H](CC(C)C)C(=O)N[C@@H](CC(N)=O)C(=O)N[C@H](C(=O)O)[C@@H](C)O [Example 7, N^ε24-[(4S)-4-carboxy-4-[[(4S)-4-carboxy-4-[[2-[2-[2-[[2-[2-[2-[[(4S)-4-carboxy-4-(17-carboxyheptadecanoylamino)butanoyl]amino]ethoxy]ethoxy]acetyl]amino]ethoxy]ethoxy]acetyl]amino]butanoyl]amino]butanoyl]-[Val^16,Lys^24,Leu^27]-Glucagon] | 0.081 nM
CC[C@H](C)[C@H](NC(=O)[C@H](CC(=O)O)NC(=O)[C@H](CC(C)C)NC(=O)[C@H](Cc1ccc(O)cc1)NC(=O)[C@H](CCCCN)NC(=O)[C@H](CO)NC(=O)[C@H](Cc1ccc(O)cc1)NC(=O)[C@H](CC(=O)O)NC(=O)[C@H](CO)NC(=O)[C@@H](NC(=O)[C@H](Cc1ccccc1)NC(=O)[C@@H](NC(=O)CNC(=O)[C@H](CCC(N)=O)NC(=O)[C@H](CO)NC(=O)[C@@H](N)Cc1c[nH]cn1)[C@@H](C)O)[C@@H](C)O)C(=O)N[C@@H](CCCNC(=N)N)C(=O)N[C@@H](CCCNC(=N)N)C(=O)N[C@@H](C)C(=O)N[C@@H](CCC(N)=O)C(=O)N[C@@H](CC(=O)O)C(=O)N[C@@H](Cc1ccccc1)C(=O)N[C@H](C(=O)N[C@@H](CCCCNC(=O)CC[C@H](NC(=O)CC[C@H](NC(=O)COCCOCCNC(=O)COCCOCCNC(=O)CC[C@H](NC(=O)CCCCCCCCCCCCCCCCC(=O)O)C(=O)O)C(=O)O)C(=O)O)C(=O)N[C@@H](Cc1c[nH]c2ccccc12)C(=O)N[C@@H](CC(C)C)C(=O)N[C@@H](CC(C)C)C(=O)N[C@@H](CC(N)=O)C(=O)N[C@H](C(=O)O)[C@@H](C)O)C(C)C [Example 8, N^ε24-[(4S)-4-carboxy-4-[[(4S)-4-carboxy-4-[[2-[2-[2-[[2-[2-[2-[[(4S)-4-carboxy-4-(17-carboxyheptadecanoylamino)butanoyl]amino]ethoxy]ethoxy]acetyl]amino]ethoxy]ethoxy]acetyl]amino]butanoyl]amino]butanoyl]-[Ile^16,Lys^24,Leu^27]-Glucagon] | 0.081 nM

Source: US9486506B2 (Novo Nordisk A/S, priority 2011, dated 2016)
